Test results taken from patent US9187396B2, “Compositions and methods for the treatment of glomerulonephritis” (Avexxin AS, priority 2009, dated 2015).

Legend:
rat iNOS promoter = experiment: iNOS promoter activity, luciferase reporter gene assay; assay type: cell-based; conditions: IL-1β (1 nM) plus 10 μM compound
Experimental: (§1) FIGS. 4A to 4C show the effect of the inhibitors of the examples on cytokine-stimulated iNOS protein (FIG. 4A) and mRNA (FIG. 4B) expression and promoter activity in mesangiai cells. Quiescent cells were stimulated with either vehicle (DMEM), IL-1β (1 nM), in the absence (−) or presence of the indicated concentrations (in μM) of AVX001 and AVX002. EtOH, vehicle control. In FIG. 4A, cells were taken for protein extraction and equal amount of. protein were separated by SDS-PAGE and subjected to a Western blot analysis using a polyclonal antibody against iNOS at a dilution of 1:2000. Data are representative of at least 3 independent experiments giving similar results. In FIG. 4B, cells were taken for RNA extraction and subjected to quantitative PCR analysis of rat iNOS and 18 S RNA. ΔΔCt values were calculated and results are expressed as % of maximal IL-1β response and are means±S.D (n=3). In FIG. 4C, cells were transfected with the rat iNOS promoter construct plus a plasmid coding for the Renilla luciferase. After transfection, cells were stimulated with vehicle (−), IL-1β (1 nM), or IL-1β plus 10 μM of AVX001. iNOS promoter activity was calculated and results are expressed as relative luciferase units (RLU) and are means±S.D.(n=3).
(§2) To see whether this effect is due to altered gene transcription of iNOS, luciferase reporter gene assays were performed to measure iNOS promoter activity. […]

rat IIA-sPLA2 promoter = experiment: sPLA2 promoter activity, luciferase reporter gene assay; assay type: cell-based; conditions: IL-1β (1 nM) plus 10 μM compound, 24 h
Experimental: (§3) FIGS. 2A to 2C show the effect of the inhibitors of the examples on cytokine-stimulated sPLA2 protein (FIG. 2A) and mRNA (FIG. 2B) expression and promoter activity in mesangial cells. Quiescent cells were stimulated with either DMEM (−), or IL-1β (1 nM) in the absence (−) or presence of AKH-217 (etOH), vehicle control. In FIG. 2A, supernatants were taken for protein precipitation and precipitated proteins were separated by SDS-PAGE and subjected to a Western blot analysis using a monoclonal antibody against rat sPLA2. […] In FIG. 2B, cells were taken for RNA extraction and subjected to quantitative PCR analysis of rat IIA-sPLA2 and 18 S RNA. ΔΔCt values were calculated and results are expressed as % of maximal IL-1β-stimulated response and are means+S.D. (n=3). In FIG. 2C, cells were transfected with the sPLA2 promoter construct plus a plasmid coding for the Renilla luciferase. After transfection, cells were stimulated for 24 h with vehicle (−), IL-1β (1 nM), or IL-1β plus 10 μM of AKH-217. sPLA2 promoter activity was calculated and results are expressed as relative luciferase units (RLU) and are means±S.D. (n=3).
(§4) It has been previously shown that the cytokine-induced PGE2 formation in mesangial cells involves both sPLA2 and cPLA2 activation (Pfeilschifter et al., 1993), we then investigated the effect of the inhibitors above on sPLA2 protein and mRNA expressions. […]

[1] = test system: IIA-sPLA2 protein expression in mesangial cells; experiment: cytokine-stimulated sPLA2 protein expression and secretion, Western blot; assay type: cell-based, rat; conditions: IL-1β (1 nM), supernatants
Experimental: as §3, §4

[2] = test system: IIA-sPLA2 mRNA expression in mesangial cells; experiment: cytokine-stimulated IIA-sPLA2 mRNA expression, quantitative PCR; assay type: cell-based, rat; conditions: IL-1β (1 nM)
Experimental: as §3, §4

phospho-p65 (NFκB) = experiment: IL-1β-stimulated NFκB activation, phospho-p65 Western blot; assay type: cell-based, rat; conditions: IL-1β (2 nM) 30 min, 10 μM compound pretreated 2 h
Experimental: FIGS. 6A to 6C show the effect of the inhibitors of the examples on IL-1β-stimulated NFκB activation in mesangial cells. In FIG. 6A, quiescent cells were stimulated for 30 min with either vehicle (DMEM), or IL-1β (2 nM) in the absence (−) or presence (+) of AVX001 or AVX002 (10 μM, pretreated 2 h). Thereafter, cell lysates were separated by SDS-PAGE and subjected to a Western blot analysis using a polyclonal antibody against phospho-p65 (NFκB) (upper panel), HuR as a loading control (middle panel), and IκB (lower panel). Data in FIG. 6A show duplicates of one representative experiments. FIGS. 6B and 6C show the densitometric evaluation of NFkB and IkB bands.
NFkB activation was measured by Western blot analyses by detecting the amount of phospho-p65 which represents the active transcription factor subunit.

[3] = test system: iNOS protein expression in mesangial cells; experiment: cytokine-stimulated iNOS protein expression, Western blot; assay type: cell-based, rat; conditions: IL-1β (1 nM)
Experimental: as §1, §2

[4] = test system: Nitric oxide (NO) formation in rat renal mesangial cells; experiment: cytokine-stimulated NO formation in mesangial cells (Griess Reaction assay); assay type: cell-based; conditions: IL-1β (1 nM), supernatant
Experimental: Quiescent cells were stimulated with either DMEM (−), IL-1β (1 nM; +), in the absence or presence of the indicated concentrations of AKH-217, AVX002, or AACOCF3. Supernatants were collected and taken for nitric oxide (NO) quantification by using a Griess Reaction assay. Data are expressed as μM of NO in the supernatant and are means±S.D. (n=3).
To see whether this effect is due to altered gene transcription of iNOS, luciferase reporter gene assays were performed to measure iNOS promoter activity. A 4.5 kb fragment of the rat iNOS promoter was kindly provided by Dr. K. F. Beck (pharmazentrum frankfurt).

mesangial cells = experiment: [3H]thymidine incorporation in mesangial cells (proliferation); assay type: cell-based, rat; conditions: insulin (100 ng/ml), IGF (50 ng/ml) or ATP (100 μM), 24 h
Experimental: FIGS. 5A and 5B show the effect of the inhibitors of the examples on [^3H]thymidine incorporation in mesangial cells. In FIG. 5A, quiescent cells were stimulated for 24 h with vehicle (DMEM), or 100 μM of ATP in the absence (−) or presence of the indicated concentrations of AVX001 or AVX002, in the presence of [^3H]thymidine. In FIG. 5B, cells were stimulated for 24 h with insulin (100 ng/ml) or IGF (50 ng/ml) in the absence (−) or presence of 10 μM of AVX001 or AVX002, in the presence of [^3H]thymidine. Thymidine incorporated into DNA was determined and results are expressed as % of control and are means±S.D. (n=3). Glomerulonephritis is characterized in a first early phase by increased mesangial apoptosis which in a second phase is replaced by an opposite event, i.e. hyperproliferation of mesangial cells. Many previous studies have shown that quiescent mesangial cells in culture can re-enter the cell cycle when exposed to various growth factors, including PDGF, insulin, insulin-like growth factor (IGF), or extracellular nucleotides such as ATP and UTP. […] In the presence of either AKH217 or AVX002, agonist-stimulated [^3H]thymidine incorporation is reduced (FIGS. 5A and 5B). Similar data were also obtained when cells were stimulated with PDGF.

CC/C=C\C/C=C\C/C=C\C/C=C\CC/C=C/CSCC(=O)C(F)(F)F [AKH-217]
effect on IL-1β-stimulated iNOS promoter activity (rat iNOS promoter): completely lost | effect on IL-1β-stimulated sPLA2 promoter activity (rat IIA-sPLA2 promoter): completely reduced | effect on IIA-sPLA2 protein expression and secretion [1]: able to reduce | effect on IIA-sPLA2 mRNA expression [2]: able to reduce | effect on IL-1β-induced increase of phospho-p65 (phospho-p65 (NFκB)): reduced | effect on IL-1β-induced iNOS protein expression [3]: down-regulated | effect on IL-1β-stimulated NO formation [4]: reduced in a dose-dependent manner | effect on agonist-stimulated [3H]thymidine incorporation (mesangial cells): reduced
